Measured values as given in ChEMBL document CHEMBL3600337, “Chemoenzymatic synthesis and cytotoxicity of oenanthotoxin and analogues” (Bioorg Med Chem, 2015).
pEC50: −log10 of the molar value.

Columns and labels:
8505C = assay: Cytotoxicity against human 8505C cells after 96 hrs by sulforhodamine B assay; type: functional, cell-based
MCF7 = assay: Cytotoxicity against human MCF7 cells after 96 hrs by sulforhodamine B assay; type: functional, cell-based; details: MCF7, 96 h
A549 = assay: Cytotoxicity against human A549 cells after 96 hrs by sulforhodamine B assay; type: functional, cell-based; details: A549, 96 h
[1] = Cytotoxicity against mouse NIH/3T3 cells after 96 hrs by sulforhodamine B assay; type: cell-based; details: NIH3T3, 96 h
A2780 = assay: Cytotoxicity against human A2780 cells after 96 hrs by sulforhodamine B assay; type: functional, cell-based; details: A2780, 96 h
[2] = Cytotoxicity against human 518A2 cells after 96 hrs by sulforhodamine B assay; type: functional, cell-based; details: 518A2, 96 h
HT-29 = assay: Cytotoxicity against human HT-29 cells after 96 hrs by sulforhodamine B assay; type: functional, cell-based; details: HT-29, 96 h

**Q.** What does the source list for `CCCC(=O)CC/C=C/C=C/C#CC#C/C=C/COC(=O)CCl`?
**A.** pEC50 (8505C): 4.71; pEC50 (MCF7): 4.57; pEC50 (A549): 5.29; pEC50 [1]: 4.92; pEC50 (A2780): 5.44; pEC50 [2]: 4.90; pEC50 (HT-29): < 4.52

**Q.** Which results are given for `CCCC(=O)CC/C=C/C=C/C#CC#C/C=C/C(=O)O`?
**A.** pEC50 (8505C): 4.71; pEC50 (MCF7): < 4.52; pEC50 (A549): < 4.52; pEC50 [1]: < 4.52; pEC50 (A2780): < 4.52; pEC50 [2]: < 4.52; pEC50 (HT-29): < 4.52

**Q.** What does the source list for `C=C(C)[C@@H]1CC[C@]2(C(=O)O)CC[C@]3(C)[C@H](CC[C@@H]4[C@@]5(C)CC[C@H](O)C(C)(C)[C@@H]5CC[C@]43C)[C@@H]12` [BETULINIC ACID]?
**A.** pEC50 (8505C): 5.17; pEC50 (MCF7): 4.83; pEC50 (A549): 4.83; pEC50 [1]: 5.00; pEC50 (A2780): 4.96; pEC50 [2]: 4.92; pEC50 (HT-29): 4.88

**Q.** With `CCC[C@@H](O)CC/C=C/C=C/C#CC#C/C=C/CO` [OENANTHOTOXIN] as the compound, how does the pEC50 (8505C) read?
**A.** 4.98

**Q.** What about the pEC50 (MCF7) of the same compound?
**A.** 4.69

**Q.** And the pEC50 (A549)?
**A.** 4.96

**Q.** What about the pEC50 [1] of the same compound?
**A.** 5.00

**Q.** What about the pEC50 (A2780) of the same compound?
**A.** 5.42

**Q.** And the pEC50 [2]?
**A.** 4.77

**Q.** What about the pEC50 (HT-29) of the same compound?
**A.** < 4.52

**Q.** With `CCCC(=O)CC/C=C/C=C/C#CC#C/C=C/COC(C)=O` as the compound, how does the pEC50 (8505C) read?
**A.** 4.81

**Q.** What about the pEC50 (MCF7) of the same compound?
**A.** 4.67

**Q.** What about the pEC50 (A549) of the same compound?
**A.** 4.25

**Q.** And the pEC50 [1]?
**A.** 4.85

**Q.** What about the pEC50 (A2780) of the same compound?
**A.** 5.33

**Q.** And the pEC50 [2]?
**A.** 5.04

**Q.** And the pEC50 (HT-29)?
**A.** < 4.52

**Q.** With `CCC[C@@H](CC/C=C/C=C/C#CC#C/C=C/COC(C)=O)OC(C)=O` as the compound, how does the pEC50 (8505C) read?
**A.** 4.77

**Q.** What about the pEC50 (MCF7) of the same compound?
**A.** 4.91

**Q.** And the pEC50 (A549)?
**A.** 4.84

**Q.** And the pEC50 [1]?
**A.** 4.93

**Q.** And the pEC50 (A2780)?
**A.** 5.41

**Q.** And the pEC50 [2]?
**A.** 4.83

**Q.** And the pEC50 (HT-29)?
**A.** 4.75

**Q.** With `CCCC(=O)CC/C=C/C=C/C#CC#C/C=C/CO` as the compound, how does the pEC50 (8505C) read?
**A.** 4.74

**Q.** What about the pEC50 (MCF7) of the same compound?
**A.** 3.63

**Q.** And the pEC50 (A549)?
**A.** 4.71

**Q.** And the pEC50 [1]?
**A.** 4.95

**Q.** And the pEC50 (A2780)?
**A.** 5.31

**Q.** And the pEC50 [2]?
**A.** 4.72

**Q.** And the pEC50 (HT-29)?
**A.** 4.67

**Q.** With `CCCC(=O)CC/C=C/C=C/C#CC#C/C=C/C=O` as the compound, how does the pEC50 (8505C) read?
**A.** 5.15

**Q.** What about the pEC50 (MCF7) of the same compound?
**A.** 5.23

**Q.** And the pEC50 (A549)?
**A.** < 4.52

**Q.** What about the pEC50 [1] of the same compound?
**A.** 4.88

**Q.** And the pEC50 (A2780)?
**A.** 5.15

**Q.** And the pEC50 [2]?
**A.** < 4.52

**Q.** And the pEC50 (HT-29)?
**A.** 4.65

**Q.** With `CCC[C@@H](O)CC/C=C/C=C/C#CC#C/C=C/COC(C)=O` as the compound, how does the pEC50 (8505C) read?
**A.** 4.69

**Q.** What about the pEC50 (MCF7) of the same compound?
**A.** 4.67

**Q.** What about the pEC50 (A549) of the same compound?
**A.** 4.69

**Q.** What about the pEC50 [1] of the same compound?
**A.** 4.77

**Q.** What about the pEC50 (A2780) of the same compound?
**A.** 5.17

**Q.** And the pEC50 [2]?
**A.** 4.83

**Q.** What about the pEC50 (HT-29) of the same compound?
**A.** 4.58

**Q.** With `CCCC(=O)CC/C=C/C=C/C#CC#C/C=C/COC(=O)c1ccccc1` as the compound, how does the pEC50 (8505C) read?
**A.** 5.38

**Q.** And the pEC50 (MCF7)?
**A.** < 4.52

**Q.** What about the pEC50 (A549) of the same compound?
**A.** 4.84

**Q.** What about the pEC50 [1] of the same compound?
**A.** 4.57

**Q.** What about the pEC50 (A2780) of the same compound?
**A.** < 4.52

**Q.** And the pEC50 [2]?
**A.** 4.69

**Q.** And the pEC50 (HT-29)?
**A.** 5.10
